Patent US20080090847A1, “HETEROCYCLIC COMPOUNDS AND USES THEREOF AS D-ALANYL-D-ALANINE LIGASE INHIBITORS” (PLIVA D.D., priority 2001, published 2008)
Read-outs that look alike come from different tables or passages of the source.

Assays:
Type in all cases: biochemical
[1] = target: E. coli ligase (D-Ala-D-Ala ligase) (Escherichia coli, UniProt P07862); test: D-Ala-D-Ala ligase Ki determination (PK/LDH coupled assay), E. coli ligase
Description: (§1) Inhibition of D-Ala-D-Ala ligase can be assayed for using the pyruvate kinase/lactate dehydrogenase (PK/LDH) assay described in Example 2, and as described in the literature (e.g., in Sarthy et al., Anal. Biochem., 254:288-290, 1997). In the bacterial cell wall synthesis process, the ligase catalyzes the conversion of adenosine triphosphate (ATP) to adenosine diphosphate (ADP) concurrent with the ligation of two D-alanine residues to form D-alanyl-D-alanine. PK then regenerates ATP from the ADP thus created simultaneously with the conversion of phosphopyruvate to pyruvate. LDH catalyzes the reduction of pyruvate to lactate by converting NADH to NAD^+. By monitoring the production rate of NAD^+ (e.g., using UV/Vis spectroscopy), D-Ala-D-Ala ligase activity can be ascertained.
(§2) The protein sequence for the enzyme D-ala-D-ala ligase has been determined in a variety of different bacterial species using standard techniques in biochemistry (see Table 5). The protein sequence from any species can be overexpressed in an appropriate host organism such as E. coli using standard molecular biology techniques. The ligase enzyme can be harvested, purified, and used in the above described assay for the determination of inhibitory activity.
(§3) The synthetic analogs of Example 1 were dissolved in dimethylsulfoxide (DMSO) at a concentration of 100 mM on the day of screening, using a vortex mixer and sonication if necessary for dissolution. The solutions were kept at room temperature until screening was completed.
(§4) A 10 mM NADH (Sigma) stock solution was prepared freshly on the day of screening by dissolving 32 μmol NADH in 3.2 ml double-distilled water. The NADH solution was kept on ice. Stock solutions containing 50 mM phosphoenolpyruvate (PEP; Sigma), 500 μM HERMES, 30 mM adenosine triphosphate (ATP; Sigma), 200 mM D-alanine (Sigma), and 4× core buffer (i.e., 400 mM Hepes, 40 mM magnesium chloride, and 40 mM potassium chloride), were also stored on ice. A stock solution of pyruvate kinase/lactate dehydrogenase (PK/LDH) was also obtained from Sigma.
(§5) Table of Final concentrations are dependent on the type of screening:
(§6) For each set of test compounds, two 96-well plates were used: an inhibitor plate and an enzyme plate. The test compounds correspond to rows A-G of the plates. Adenosine (Sigma) dissolved in DMSO, used as a control, corresponds to row H of each plate.
(§7) The enzyme solution was allowed to equilibrate to 25° C.
(§8) Dilutions were prepared in the inhibitor plate as follows: 50 μl DMSO was added to each well of columns 1-11, rows A-G, of the inhibitor plate. 50 μl DMSO were added to each well of columns 1-11, row H. 100 μl of the 100 mM test solutions were added to column 12, rows A-G (i.e., the first compound in row A, the second compound in row B, and so on). 100 μl of a 100 mM Adenosine solution was added to column 12, row H.
(§9) 50 μl of the test solution was transferred from column 12 in each row to column 11 of the a same row, mixing the solution with the DMSO. 50 μl of solution was then transferred from column 11 in each row to column 10 in the same row, 50 μl from column 10 was transferred to column 9, and so on, down to column 2. No solution was transferred to column 1. Multichannel pipettors were used in making the serial dilution.
(§10) 120 μl of the enzyme solution was added to each well of the enzyme plate.
(§11) The substrate solutions were brought to 25° C.
(§12) The analogs and enzymes were then incubated at 25° C. Since the reactions were initiated in columns, the analog addition is also in columns. At t=0 minutes, 5 μl analog was transferred from each well of columns 1-4 of the inhibitor plate to the corresponding well of the enzyme plate. At t=4 minutes, 5 μl analog was transferred from each well of columns 5-8 of the inhibitor plate to the corresponding well of the enzyme plate. At t=8 minutes, 5 μl analog was transferred from each well of columns 9-12 of the inhibitor plate to the corresponding well of the enzyme plate. The inhibitor plate was then frozen. […]

[2] = target: Staph ligase (D-Ala-D-Ala ligase) (Staphylococcus aureus, UniProt Q5HEB7); test: D-Ala-D-Ala ligase Ki determination (PK/LDH coupled assay), Staph ligase; settings: Ki/ATP, avg, read-out: Staph ligase Ki/ATP (uM) avg
Description: as §1, §2, §3, §4, §5, §6, §7, §8, §9, §10, §11, §12

[3] = target: H. Influenzae ligase (D-Ala-D-Ala ligase) (Haemophilus influenzae, UniProt P44405); test: D-Ala-D-Ala ligase Ki determination (PK/LDH coupled assay), H. influenzae ligase; settings: Ki/ATP, avg, read-out: H. Influenzae ligase Ki/ATP (uM) avg
Description: as §1, §2, §3, §4, §5, §6, §7, §8, §9, §10, §11, §12

[4] = target: T1, Strep ligase (D-Ala-D-Ala ligase) (Streptococcus pneumoniae serotype 4, UniProt P0CB57); test: D-Ala-D-Ala ligase Ki determination (PK/LDH coupled assay), Strep ligase; settings: Ki/ATP, avg, read-out: Strep ligase Ki/ATP (uM) avg
T1 sequence (P0CB57 1-347): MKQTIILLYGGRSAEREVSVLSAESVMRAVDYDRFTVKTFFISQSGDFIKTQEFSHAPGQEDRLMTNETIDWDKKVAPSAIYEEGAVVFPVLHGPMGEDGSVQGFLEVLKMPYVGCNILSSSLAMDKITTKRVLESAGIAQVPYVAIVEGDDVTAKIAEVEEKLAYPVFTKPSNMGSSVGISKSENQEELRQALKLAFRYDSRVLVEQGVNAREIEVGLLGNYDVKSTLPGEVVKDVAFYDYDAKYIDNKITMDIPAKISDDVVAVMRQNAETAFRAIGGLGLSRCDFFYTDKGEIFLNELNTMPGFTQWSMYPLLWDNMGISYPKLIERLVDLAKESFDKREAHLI
Description: as §1, §2, §3, §4, §5, §6, §7, §8, §9, §10, §11, §12

[5] = target: T2, 4 ligases in the panel (D-Ala-D-Ala ligase); test: Ligase panel statements (ligases not individually named); settings: 3 of the 4 ligases; read-out: Ki's against 3 of the 4 ligases in the panel
T2 construct: rows headed: Ki's against 3 of the 4 ligases in the panel; other: text b65; 3 of the 4 ligases
Description: as §1, §2, §3
(§13) A 10 mM NADH (Sigma) stock solution was prepared freshly on the day of screening by dissolving 32 μmol NADH in 3.2 ml double-distilled water. The NADH solution was kept on ice. […]
(§14) Plots of reaction rates vs. inhibitor concentration were generated using Kaleidograph®, and Ki values were determined after the data was fitted to the proper equation.

[6] = system: T3, 4 ligases in the panel (D-Ala-D-Ala ligase); test: as above
T3 construct: rows headed: ligase panel activity (in words); other: text b65
Description: as §1, §2, §3, §13, §14

[7] = E. coli ligase Ki/ATP (uM) avg, Table 3, Ki/ATP, avg
[8] = E. coli ligase Ki/ATP (uM) avg, Table 5, Ki/ATP, avg

Chain of Staph ligase (D-Ala-D-Ala ligase) (Q5HEB7 whole entry): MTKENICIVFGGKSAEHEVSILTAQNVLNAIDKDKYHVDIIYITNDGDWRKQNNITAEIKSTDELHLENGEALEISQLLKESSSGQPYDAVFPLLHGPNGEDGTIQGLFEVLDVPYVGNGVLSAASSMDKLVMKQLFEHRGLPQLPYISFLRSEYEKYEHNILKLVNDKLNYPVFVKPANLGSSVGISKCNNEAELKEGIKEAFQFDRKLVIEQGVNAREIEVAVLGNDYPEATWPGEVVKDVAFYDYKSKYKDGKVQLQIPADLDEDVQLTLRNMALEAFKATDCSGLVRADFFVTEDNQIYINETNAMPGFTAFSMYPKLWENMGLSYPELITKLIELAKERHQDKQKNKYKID
Chain of H. Influenzae ligase (D-Ala-D-Ala ligase) (P44405 whole entry): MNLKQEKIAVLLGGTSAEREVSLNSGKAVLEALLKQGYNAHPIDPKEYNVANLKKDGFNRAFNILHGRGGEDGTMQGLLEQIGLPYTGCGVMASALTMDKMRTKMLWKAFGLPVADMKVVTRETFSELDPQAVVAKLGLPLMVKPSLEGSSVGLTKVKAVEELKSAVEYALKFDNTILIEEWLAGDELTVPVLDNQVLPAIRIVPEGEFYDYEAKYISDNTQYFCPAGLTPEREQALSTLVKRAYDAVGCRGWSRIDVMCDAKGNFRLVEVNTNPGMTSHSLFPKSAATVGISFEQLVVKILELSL

CCOc1ccc2ccccc2c1CN(CCC(=O)NCc1cccc(CN)c1)c1ncc2c(N)nc(N)nc2n1
Ki [1, 7]: 5.3 µM
Ki ([2]; Table 3): 0.9 µM
Ki ([3]; Table 3): 0.4 µM
Ki ([4]; Table 3): 0.9 µM
Ki [5]: < 1000 nM

CCOc1ccc2ccccc2c1CN(CCC(=O)NCC(=N)N)c1ncc2c(N)nc(N)nc2n1
Ki [1, 7]: 1 µM
Ki ([2]; Table 3): 6.3 µM
Ki ([3]; Table 3): 0.6 µM
Ki ([4]; Table 3): 1.4 µM
ligase panel activity (in words) [6]: activity similar to that of the first compound

CCOc1ccc2ccccc2c1CN(CCC(=O)NCc1ccc(N)cc1)c1ncc2c(N)nc(N)nc2n1
Ki [1, 7]: 8.7 µM
Ki ([2]; Table 3): 1.2 µM
Ki ([3]; Table 3): 1.6 µM
Ki ([4]; Table 3): 1.6 µM
ligase panel activity (in words) [6]: potent against three ligase species

CCOc1ccc2ccccc2c1CN(CCCCN)c1ncc2c(N)nc(N)nc2n1 [N7-(4-Amino-butyl)-N-7-(2-ethoxynaphthalen-1-ylmethyl)-pyrimido[4,5-d]pyrimidine-2,4,7-triamine]
Ki [1, 8]: 0.105 µM
Ki ([1]; Ki against the ligase isolated from E. coli): 0.102 µM
Ki ([2]; Table 5): 15 µM
Ki ([3]; Table 5): 0.52 µM
Ki ([4]; Table 5): 4.5 µM

CC(c1cccc2ccccc12)N(CCCCN)c1ncc2c(N)nc(N)nc2n1 (stereo not drawn) [drawing 55]
Ki [1, 8]: 0.135 µM
Ki ([2]; Table 5): 32 µM
Ki ([3]; Table 5): 4.2 µM
Ki ([4]; Table 5): 23.1 µM
